Assay [1] deals with T1, GrhO5 (Streptomyces sp. JP95, UniProt Q8KSX7).
T1 construct: crystallised; domains I-III, residues 1-537 described; construct details only in supplement
T1 sequence (Q8KSX7 1-537): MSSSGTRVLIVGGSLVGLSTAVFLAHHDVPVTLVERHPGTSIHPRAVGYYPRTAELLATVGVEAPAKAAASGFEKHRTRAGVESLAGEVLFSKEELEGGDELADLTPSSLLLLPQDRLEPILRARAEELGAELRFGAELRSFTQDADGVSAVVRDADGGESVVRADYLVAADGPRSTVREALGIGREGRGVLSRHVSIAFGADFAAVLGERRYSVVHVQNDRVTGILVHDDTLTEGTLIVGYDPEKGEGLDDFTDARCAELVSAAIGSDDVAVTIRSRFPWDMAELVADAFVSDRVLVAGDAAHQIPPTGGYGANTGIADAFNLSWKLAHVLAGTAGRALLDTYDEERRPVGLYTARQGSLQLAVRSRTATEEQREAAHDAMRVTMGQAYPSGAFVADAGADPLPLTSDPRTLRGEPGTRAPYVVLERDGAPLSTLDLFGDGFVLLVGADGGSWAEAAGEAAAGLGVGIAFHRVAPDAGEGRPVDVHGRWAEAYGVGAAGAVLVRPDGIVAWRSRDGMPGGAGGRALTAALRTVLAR
Put plainly: X-ray crystal structure, crystals soaked with […]. Particulars: FAD in OUT, reducible state; bound ligand may be 3 or its reduced form 5 (dihydrocollinone). Format: binding.

For assay [2], the target named is T1, GrhO5. Put plainly: X-ray crystal structure, […] Å. Format: binding. Particulars: ligand-free acceptor state, FAD in OUT.

In the case of `COc1cc(=O)c2c(=O)c3c(c(=O)c=2c1=O)=C(O)[C@@]1(O)c2c(cc4cc(C)oc(=O)c4c2O)CC[C@@]1(O)C=3O` [compound 3, collinone], at GrhO5 [1], the “X-ray crystal structure, crystals soaked with 3” value is reported as “revealed clear electron density in the open, solvent‐exposed substrate‐binding site”.
For the compound `Cc1cc2nc3c(=O)[nH]c(=O)nc-3n(C[C@H](O)[C@H](O)[C@H](O)COP(=O)(O)OP(=O)(O)OC[C@H]3O[C@@H](n4cnc5c(N)ncnc54)[C@H](O)[C@@H]3O)c2cc1C` [FAD], on GrhO5 [2], the “X-ray crystal structure, 1.75 Å” value is “domains I and II are essential for FAD‐ and substrate binding, respectively”.
